Patent US10376487B2, “Method of treatment” (Vanda Pharmaceuticals, Inc., priority 2013, dated 2019)
Where two headings read alike, the source gives them in different places.

Assay: Clinical food-effect study: pharmacokinetics of a 100 mg tasimelteon capsule with or without a high-fat/high-calorie meal
Format: in vivo, human
Settings: for Cmax / Tmax: human, in vivo, po
Procedure: A clinical study was undertaken to investigate the effects of food on administration of tasimelteon. Specifically, the primary objective of the study was to investigate the influence of food (high-calorie/high-fat) on the pharmacokinetics of 100 mg of tasimelteon in healthy subjects. This was a single-center, open-label, crossover design which lasted up to 5 weeks. 26 Healthy male and female subjects (18-50 years old) were enrolled in the study. There was a 2-period, randomized, 2-sequence crossover design where each subject received 100 mg tasimelteon either with or without food. Subjects were randomly assigned to receive a 100 mg tasimelteon capsule under fasted conditions or a 100 mg tasimelteon capsule under fed conditions (i.e., 30 minutes after beginning to ingest a high-fat meal). There was a 7-day washout between treatment groups. FIG. 1 depicts an example of the overall study design. In FIG. 1, tasimelteon is referred to as VEC-162.
For purposes of the study depicted in FIG. 1, administration under fasted conditions was administration with 240 mL of water at approximately 6:00 AM, after at least a 10-hour fast. Subjects were not allowed to eat any food for at least 4 hours postdose. Subjects were allowed to drink water as desired except 1 hour before and 2 hours after drug administration.
Administration under fed conditions was administration with 240 mL of water at approximately 6:00 AM, after a high-fat/high=calorie breakfast, which included one cup of milk. Subjects began the recommended meal 30 minutes prior to drug administration. Subjects finished eating the meal in 30 minutes or less and the drug was administered approximately 30 minutes after the start of the meal. Subjects were not allowed to eat any food for at least 4 hours postdose. Subjects were allowed to drink water as desired except 1 hour before and 2 hours after drug administration.
25 Subjects completed both periods of the study.

[1] = fed vs fasted, 100 mg oral, 90% CI within 80% to 125%
[2] = with a high-fat/high calorie meal vs fasted

Cmax lower than when given in a fasted state (administered with a high-fat meal, illustrative prescribing information language): 44%
Cmax (both sexes, 100 mg, healthy subjects, 100 mg oral capsule, fasted conditions): 786 ng/mL
Cmax (both sexes, 100 mg, healthy subjects, 100 mg oral capsule, fed conditions (high-fat/high-calorie meal)): 445 ng/mL
Tmax (both sexes, 100 mg, healthy subjects, 100 mg oral capsule, fed conditions (high-fat/high-calorie meal), read-out: median Tmax): 2.5 h
AUC(0-t) geometric mean ratio [1]: 108.57%
AUC(Inf) geometric mean ratio [1]: 106.54%
Cmax geometric mean ratio (fed vs fasted, 100 mg oral, 90% confidence interval 49.72% to 62.67%): 55.82%
Tmax (after fasted oral administration, illustrative prescribing information language, read-out: peak concentration (Tmax)): 0.5 to 3 h
extent of absorption [2]: no significant change
rate of absorption [2]: significant decrease
Structure (SMILES): CCC(=O)NC[C@@H]1C[C@H]1c1cccc2c1CCO2 [tasimelteon]
